Reference: US20240209027A1, “PEPTIDE AND PEPTIDE-CONTAINING COMPOSITION” (PeptiAID Inc.,, priority 2021, published 2024)
Read-outs that look alike come from different tables or passages of the source. Starred links: 1 amine or outer side, 2 acyl side, 3 side chain; linkers in the order of their positions; H or OH if unused. Positions of bridges follow the written chain, without caps; N, C: chain ends. Non-standard residues stand in square brackets, D forms with d. Residues, ends and D or L forms follow the SMILES beside them. Chains are numbered I, II in the order given. *: point of attachment. X5 = O=C(O)CCCCCCCCCCCCC(=O)N[C@@H](CCC(=O)N[C@@H](CCCCN*)C(=O)O)C(=O)O; X4 = O=C(O)CCCCCCCCCCC(=O)N[C@@H](CCC(=O)N[C@@H](CCCCN*)C(=O)O)C(=O)O; Ala(piperidin-4-yl) = O=C([C@H](CC1CCN([*:3])CC1)N[*:1])[*:2]; Phe(4-COOH) = N[C@@H](Cc1ccc(C(=O)O)cc1)C(=O)O; X3 = O=C(O)CN1CCC(N[*:1])(C(=O)[*:2])CC1; Phe(4-F) = N[C@@H](Cc1ccc(F)cc1)C(=O)O; C12 diacid = O=C(O)CCCCCCCCCCC(=O)*; NMeF = CN[C@@H](Cc1ccccc1)C(=O)O; X1 = C[C@@H](Cc1ccc(O)cc1)C(=O)*; NMeE = CN[C@@H](CCC(=O)O)C(=O)O; dNMeE = CN[C@H](CCC(=O)O)C(=O)O; Cha = N[C@@H](CC1CCCCC1)C(=O)O; Cit = NC(=O)NCCC[C@H](N)C(=O)O; dNMeD = CN[C@H](CC(=O)O)C(=O)O; NMeNle = CCCC[C@H](NC)C(=O)O; hCys = N[C@@H](CCS)C(=O)O; X2 = O=C(C[*:1])[*:2]; Aib = CC(C)(N)C(=O)O

Key:
[1] = tested on: SARS-CoV-2 (JPN/TY/WK-521 strain); format: cell-based; parameters: key: the case where the peptide was found to have anti-SARS-CoV-2 activity when added at 50 nM was designated as “2”; the case where no activity was found upon the addition at 50 nM but the activity was found at 1 μM was designated as “1”; conditions: peptide added at 50 nM or 1 μM
[2] = tested on: SARS-CoV2 (USA WA1/2020 strain); conditions: 72 h
in vitro = conditions: African green monkey

| SMILES | IC50 [2] [µM] | CC50 at 72 h (in vitro) [µM] | IC50 (SARS-CoV-2 Wuhan strain) [µM] | IC50 (SARS-CoV-2 Delta strain) [µM] | other results |
| --- | --- | --- | --- | --- | --- |
| CCCC[C@H]1C(=O)NC(C)(C)C(=O)N[C@@H](CC2CCCCC2)C(=O)N[C@@H](Cc2ccc(F)cc2)C(=O)N[C@H](CC(=O)O)C(=O)N[C@@H](Cc2ccc(O)cc2)C(=O)N[C@@H](Cc2ccc(O)cc2)C(=O)N[C@@H](Cc2ccc(C(=O)O)cc2)C(=O)N[C@H](CCCNC(=N)N)C(=O)N[C@@H](CC2CCCCC2)C(=O)N[C@H](C(N)=O)CSCC(=O)N(C)[C@@H](CCC(=O)O)C(=O)N1C [Peptide 5555_p003] ({CH2CO}-[NMeE][NMeNle][Aib][Cha][Phe(4-F)][dD]YY[Phe(4-COOH)][dR][Cha]C-NH2; thioether N-12) | 0.0045 | > 100 |  |  | Anti-SARS-CoV-2 activity [1]: 2 |
| CCCC[C@H]1C(=O)NC(C)(C)C(=O)N[C@@H](CC2CCCCC2)C(=O)N[C@@H](Cc2ccc(F)cc2)C(=O)N(C)[C@@H](CCC(=O)O)C(=O)N[C@@H](Cc2ccc(O)cc2)C(=O)N[C@@H](Cc2ccc(O)cc2)C(=O)N[C@@H](Cc2ccc(C(=O)O)cc2)C(=O)N[C@H](CCCNC(=N)N)C(=O)N[C@@H](CC2CCCCC2)C(=O)N[C@H](C(N)=O)CSCC(=O)N(C)[C@@H](CCC(=O)O)C(=O)N1C [Peptide 5555_p005] ({CH2CO}-[NMeE][NMeNle][Aib][Cha][Phe(4-F)][NMeE]YY[Phe(4-COOH)][dR][Cha]C-NH2; thioether N-12) | 0.005 | > 100 |  |  |  |
| CCCC[C@H]1C(=O)NC(C)(C)C(=O)N[C@@H](CC2CCCCC2)C(=O)N[C@@H](Cc2ccc(F)cc2)C(=O)N[C@H](CC(=O)O)C(=O)N[C@@H](Cc2ccc(O)cc2)C(=O)N[C@@H](Cc2ccc(O)cc2)C(=O)N[C@@H](Cc2ccc(C(=O)O)cc2)C(=O)N[C@@H](CC2CCNCC2)C(=O)N[C@@H](CC2CCCCC2)C(=O)N[C@H](C(=O)N[C@H](CCC(=O)O)C(N)=O)CSCC(=O)N(C)[C@@H](CCC(=O)O)C(=O)N1C [Peptide 5555_p026] ({CH2CO}-[NMeE][NMeNle][Aib][Cha][Phe(4-F)][dD]YY[Phe(4-COOH)][Ala(piperidin-4-yl)][Cha]C[dE]-NH2; thioether N-12) | 0.0081 |  |  |  | Anti-SARS-CoV-2 activity [1]: 2 |
| CCCC[C@H]1C(=O)NC(C)(C)C(=O)N[C@@H](CC2CCCCC2)C(=O)N[C@@H](Cc2ccc(F)cc2)C(=O)N(C)[C@@H](CCC(=O)O)C(=O)N[C@@H](Cc2ccc(O)cc2)C(=O)N[C@@H](Cc2ccc(O)cc2)C(=O)N[C@@H](Cc2ccc(C(=O)O)cc2)C(=O)N[C@H](CCCNC(=N)N)C(=O)N[C@@H](CC2CCCCC2)C(=O)N[C@H](C(=O)N[C@H](CCC(=O)O)C(N)=O)CSCC(=O)N(C)[C@@H](CCC(=O)O)C(=O)N1C [Peptide 5555_p039] ({CH2CO}-[NMeE][NMeNle][Aib][Cha][Phe(4-F)][NMeE]YY[Phe(4-COOH)][dR][Cha]C[dE]-NH2; thioether N-12) | 0.0074 | > 100 |  |  |  |
| CN1C(=O)CSC[C@@H](C(=O)N[C@H](CCC(=O)O)C(N)=O)NC(=O)[C@H](CC2CCCCC2)NC(=O)[C@H](CCCCN)NC(=O)[C@H](Cc2ccc(C(=O)O)cc2)NC(=O)[C@H](Cc2ccc(O)cc2)NC(=O)[C@H](Cc2ccc(O)cc2)NC(=O)[C@H](CCC(=O)O)N(C)C(=O)[C@H](Cc2ccc(F)cc2)NC(=O)[C@H](CC2CCCCC2)NC(=O)[C@H](CO)NC(=O)[C@H](Cc2ccccc2)N(C)C(=O)[C@@H]1CCC(=O)O [Peptide 5555_p088] ({CH2CO}-[NMeE][NMeF]S[Cha][Phe(4-F)][NMeE]YY[Phe(4-COOH)]K[Cha]C[dE]-NH2; thioether N-12) | 0.0114 | > 100 |  |  |  |
| CN1C(=O)CSC[C@@H](C(=O)N[C@H](CCC(=O)O)C(N)=O)NC(=O)[C@H](CC2CCCCC2)NC(=O)[C@H](CCCCN)NC(=O)[C@H](CCCNC(N)=O)NC(=O)[C@H](Cc2ccc(O)cc2)NC(=O)[C@H](Cc2ccc(O)cc2)NC(=O)[C@H](CCC(=O)O)N(C)C(=O)[C@H](Cc2ccc(F)cc2)NC(=O)[C@H](CC2CCCCC2)NC(=O)[C@H](CO)NC(=O)[C@H](Cc2ccccc2)N(C)C(=O)[C@@H]1CCC(=O)O [Peptide 5555_p092] ({CH2CO}-[NMeE][NMeF]S[Cha][Phe(4-F)][NMeE]YY[Cit]K[Cha]C[dE]-NH2; thioether N-12) | 0.0041 | > 100 |  |  | Anti-SARS-CoV-2 activity ([1]; VeroE6/TMPRSS2 cells, JPN/TY/WK-521 strain, 24 hours): 2 |
| CN1C(=O)CSC[C@@H](C(=O)N[C@H](CCC(=O)O)C(=O)O)NC(=O)[C@H](CC2CCCCC2)NC(=O)[C@H](CC2CCNCC2)NC(=O)[C@H](Cc2ccc(C(=O)O)cc2)NC(=O)[C@H](Cc2ccc(O)cc2)NC(=O)[C@H](Cc2ccc(O)cc2)NC(=O)[C@H](CCC(=O)O)N(C)C(=O)[C@H](Cc2ccc(F)cc2)NC(=O)[C@H](CC2CCCCC2)NC(=O)C(C)(C)NC(=O)[C@H](Cc2ccccc2)N(C)C(=O)[C@@H]1CCC(=O)O [Peptide 5555_p119] ({CH2CO}-[NMeE][NMeF][Aib][Cha][Phe(4-F)][NMeE]YY[Phe(4-COOH)][Ala(piperidin-4-yl)][Cha]C[dE]-OH; thioether N-12) | 0.0182 | > 100 |  |  |  |
| CCCC[C@H]1C(=O)NC(C)(C)C(=O)N[C@@H](CC2CCCCC2)C(=O)N[C@@H](Cc2ccc(F)cc2)C(=O)NC2(CCN(CC(=O)O)CC2)C(=O)N[C@@H](Cc2ccc(O)cc2)C(=O)N[C@@H](Cc2ccc(O)cc2)C(=O)N[C@@H](Cc2ccc(C(=O)O)cc2)C(=O)N[C@@H](CC2CCNCC2)C(=O)N[C@@H](CC2CCCCC2)C(=O)N[C@H](C(=O)N[C@H](CCC(=O)O)C(N)=O)CSCC(=O)N(C)[C@@H](CCC(=O)O)C(=O)N1C [Peptide 5555_p173] ({CH2CO}-[NMeE][NMeNle][Aib][Cha][Phe(4-F)][X3]YY[Phe(4-COOH)][Ala(piperidin-4-yl)][Cha]C[dE]-NH2; thioether N-12) |  |  | 0.0068 |  |  |
| CCCC[C@H]1C(=O)NC(C)(C)C(=O)N[C@@H](CC2CCCCC2)C(=O)N[C@@H](Cc2ccc(F)cc2)C(=O)N(C)[C@H](CCC(=O)O)C(=O)N[C@@H](Cc2ccc(O)cc2)C(=O)N[C@@H](Cc2ccc(O)cc2)C(=O)N[C@@H](Cc2ccc(C(=O)O)cc2)C(=O)N[C@@H](CC2CCNCC2)C(=O)N[C@@H](CC2CCCCC2)C(=O)N[C@H](C(=O)N[C@H](CCC(=O)O)C(N)=O)CSCC(=O)N(C)[C@@H](CCC(=O)O)C(=O)N1C [Peptide 5555_p175] ({CH2CO}-[NMeE][NMeNle][Aib][Cha][Phe(4-F)][dNMeE]YY[Phe(4-COOH)][Ala(piperidin-4-yl)][Cha]C[dE]-NH2; thioether N-12) |  |  | 0.0345 |  |  |
| CCCC[C@H]1C(=O)NC(C)(C)C(=O)N[C@@H](CC2CCCCC2)C(=O)N[C@@H](Cc2ccc(F)cc2)C(=O)N(C)[C@H](CC(=O)O)C(=O)N[C@@H](Cc2ccc(O)cc2)C(=O)N[C@@H](Cc2ccc(O)cc2)C(=O)N[C@@H](Cc2ccc(C(=O)O)cc2)C(=O)N[C@@H](CC2CCNCC2)C(=O)N[C@@H](CC2CCCCC2)C(=O)N[C@H](C(=O)N[C@H](CCC(=O)O)C(N)=O)CSCC(=O)N(C)[C@@H](CCC(=O)O)C(=O)N1C [Peptide 5555_p176] ({CH2CO}-[NMeE][NMeNle][Aib][Cha][Phe(4-F)][dNMeD]YY[Phe(4-COOH)][Ala(piperidin-4-yl)][Cha]C[dE]-NH2; thioether N-12) |  |  | 0.0136 | 0.0137 |  |
| CCCC[C@@H](C(=O)NC(C)(C)C(=O)N[C@@H](CC1CCCCC1)C(=O)N[C@@H](Cc1ccc(F)cc1)C(=O)N[C@H](CC(=O)O)C(N)=O)N(C)C(=O)[C@H](CCC(=O)O)N(C)C(=O)CSCC[C@H](NC(=O)[C@H](CC1CCCCC1)NC(=O)[C@@H](CCCCN)NC(=O)[C@H](CCCNC(N)=O)NC(=O)[C@H](Cc1ccc(O)cc1)NC(=O)[C@@H](C)Cc1ccc(O)cc1)C(=O)N[C@H](CCC(=O)O)C(=O)N[C@H](CCCCNC(=O)CCCCCCCCCCC(=O)O)C(N)=O [Peptide 5555_p221] (I: X1-Y[Cit][dK][Cha][hCys][dE][dK](C12 diacid)-NH2 / II: [NMeE][NMeNle][Aib][Cha][Phe(4-F)][dD]-NH2; linker I:5-II:N via X2) |  |  | 0.0177 | 0.0186 |  |
| CCCC[C@H]1C(=O)NC(C)(C)C(=O)N[C@@H](CC2CCCCC2)C(=O)N[C@@H](Cc2ccc(F)cc2)C(=O)N[C@H](CC(=O)O)C(=O)N[C@@H](Cc2ccc(O)cc2)C(=O)N[C@@H](Cc2ccc(O)cc2)C(=O)N[C@@H](CCCNC(N)=O)C(=O)N[C@H](CCCCN)C(=O)N[C@@H](CC2CCCCC2)C(=O)N[C@H](C(=O)N[C@H](CCC(=O)O)C(=O)NCCCC[C@H](NC(=O)CC[C@H](NC(=O)CCCCCCCCCCC(=O)O)C(=O)O)C(=O)O)CSCC(=O)N(C)[C@@H](CCC(=O)O)C(=O)N1C [Peptide 5555_p234] ({CH2CO}-[NMeE][NMeNle][Aib][Cha][Phe(4-F)][dD]YY[Cit][dK][Cha]C[dE]-X4; thioether N-12) |  |  |  | 0.042 |  |
| CCCC[C@H]1C(=O)NC(C)(C)C(=O)N[C@@H](CC2CCCCC2)C(=O)N[C@@H](Cc2ccc(F)cc2)C(=O)N[C@H](CC(=O)O)C(=O)N[C@@H](Cc2ccc(O)cc2)C(=O)N[C@@H](Cc2ccc(O)cc2)C(=O)N[C@@H](CCCNC(N)=O)C(=O)N[C@H](CCCCN)C(=O)N[C@@H](CC2CCCCC2)C(=O)N[C@H](C(=O)N[C@H](CCC(=O)O)C(=O)NCCCC[C@H](NC(=O)CC[C@H](NC(=O)CCCCCCCCCCCCC(=O)O)C(=O)O)C(=O)O)CSCC(=O)N(C)[C@@H](CCC(=O)O)C(=O)N1C [Peptide 5555_p235] ({CH2CO}-[NMeE][NMeNle][Aib][Cha][Phe(4-F)][dD]YY[Cit][dK][Cha]C[dE]-X5; thioether N-12) |  |  |  | 0.057 |  |
